Laboratory results reported in patent US20190038659A1, “METHODS OF TREATING AND PREVENTING AMYOTROPHIC LATERAL SCLEROSIS” (priority 2015, published 2019).
Entries after “also recorded” stand apart in the source; their conditions may differ. Read-outs that look alike come from different tables or passages of the source.

What was measured:
[1] = test system: VSV-G pseudotyped HERV-K; experiment: cells; format: cell-based, human endogenous retrovirus-K (HERV-K); conditions: for IC90: Homo sapiens, HeLa, 144 h, read-out: IC90, HERV-K replication (gag RNA by qPCR)
[2] = test system: HERV-K protease; experiment: HERV-K viral production from pCD-HK/Rev transfected HeLa cells with protease inhibitors (PERT assay of supernatant); format: cell-based, human endogenous retrovirus-K (HERV-K); conditions: for IC90: Homo sapiens; for inhibition of HERV-K viral production (in words): inhibitors added 6 hr after transfection, PERT assay
[3] = test system: HERV-K viral transcripts; experiment: HERV-K activation in human neuronal cultures after neuronal injury (viral transcripts); format: cell-based; conditions: human neurons; 3 mM 3-nitropropionic acid, 100 μM N-methyl-D-aspartate or 100 μM hydrogen peroxide, 18 hours
[4] = test system: HERV-K reverse transcriptase; experiment: HERV-K RT activity in a cell-free system (PERT assay); format: biochemical, human endogenous retrovirus-K (HERV-K); conditions: inhibitor added to extracted HERV-K RT just prior to PERT assay
[5] = 2-fold serial dilution 31.25 nM to 1 μM
[6] = 2-fold serial dilution 31.25 nM to 1 μM, PERT 48 hrs, read-out: IC90, HERV-K viral production
[7] = 10-fold serial dilution 0.001 μM-100 μM, PERT 48 hr post-treatment, read-out: IC90, HERV-K protease / viral production, extensive dose-response

Compound: Cc1nnc(C(=O)NC(C)(C)c2nc(C(=O)NCc3ccc(F)cc3)c(O)c(=O)n2C)o1 [Raltegravir]
- inhibition of HERV-K replication (in words) [1]: effectively block; also recorded: inhibited the replication of HERV-K in a dose-dependent manner; also recorded: effectively inhibited
- IC90 [1]: 75 nM

Compound: CC(C)CN(C[C@@H](O)[C@H](Cc1ccccc1)NC(=O)O[C@H]1CO[C@H]2OCC[C@H]21)S(=O)(=O)c1ccc(N)cc1 [Darunavir]
- rank among the HIV protease inhibitors tested [2, 5]: highest efficacy; also recorded: two most potent drugs
- IC90 [2, 6]: ~100 nM
- IC90 [2, 7]: 71 nM
- inhibition of HERV-K viral production (in words) [2]: inhibited HERV-K protease in a dose-dependent manner

Compound: O=C(O)CC[N+](=O)[O-] [3-nitropropionic acid]
- activation of HERV-K (viral transcripts) [3]: No activation of HERV-K

Compound: Nc1nc(NC2CC2)c2ncn([C@H]3C=C[C@@H](CO)C3)c2n1 [Abacavir]
- inhibition of HERV-K RT activity [4]: significant and dose-dependent inhibition
- inhibition of HERV-K replication (in words) [1]: effectively block; also recorded: inhibited HERV-K replication in a dose-dependent manner; also recorded: effectively inhibited
- IC90 [1]: 175 nM

Compound: C[C@H](Cn1cnc2c(N)ncnc21)OCP(=O)(O)O [Tenofovir]
- inhibition of HERV-K RT activity [4]: significant and dose-dependent inhibition

Compound: Cc1cccc(C)c1OCC(=O)N[C@@H](Cc1ccccc1)[C@@H](O)C[C@H](Cc1ccccc1)NC(=O)[C@H](C(C)C)N1CCCNC1=O [Lopinavir]
- rank among the HIV protease inhibitors tested [2, 5]: highest efficacy; also recorded: two most potent drugs
- IC90 [2, 6]: ~100 nM
- IC90 [2, 7]: 651 nM
- inhibition of HERV-K viral production (in words) [2]: inhibited HERV-K protease in a dose-dependent manner

Compound: O=C1Nc2ccc(Cl)cc2[C@@](C#CC2CC2)(C(F)(F)F)O1 [Efirvarenz]
- inhibition of HERV-K RT activity [4]: significant inhibition

Compound: Cc1ccnc2c1NC(=O)c1cccnc1N2C1CC1 [Nevirapine]
- inhibition of HERV-K RT activity [4]: significant inhibition

Compound: Cc1cn([C@H]2C[C@H](N=[N+]=[N-])[C@@H](CO)O2)c(=O)[nH]c1=O [Zidovudine]
- inhibition of HERV-K RT activity [4]: significant and dose-dependent inhibition
- inhibition of HERV-K replication (in words) [1]: effectively block; also recorded: inhibited HERV-K replication in a dose-dependent manner; also recorded: effectively inhibited
- IC90 [1]: 70 nM

Compound: CN[C@H](CC(=O)O)C(=O)O [N-methyl-D-aspartate]
- activation of HERV-K (viral transcripts) [3]: No activation of HERV-K

Compound: Cc1cc(C#N)cc(C)c1Oc1nc(Nc2ccc(C#N)cc2)nc(N)c1Br [Etravirine]
- inhibition of HERV-K RT activity [4]: significant inhibition

Compound: OO [hydrogen peroxide]
- activation of HERV-K (viral transcripts) [3]: No activation of HERV-K

Compound: Cc1cn([C@H]2C=C[C@@H](CO)O2)c(=O)[nH]c1=O [Stavudine]
- inhibition of HERV-K RT activity [4]: significant and dose-dependent inhibition
